One may read the TGI as the concentration giving total growth inhibition.

Each structure is given as a SMILES string.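 48-hour exposure; five concentrations; linearly interpolated endpoints. TGI: total growth inhibition.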

Some test systems named below: MDA-MB-435; EKVX NSCLC; RPMI-8226 leukemia; CAKI-1 renal; M14 melanoma; SK-MEL-2 melanoma; HCC-2998 colon; T-47D breast; MDA-MB-231 breast; SNB-19 CNS.
What all share (assay): DTP human tumour cell line panel, 48 h

Take `COc1cc(/C=C(\C)[N+](=O)[O-])cc(OC)c1`: the TGI came to 28.3 µM in the test on MDA-MB-435; 33.9 µM in the test with EKVX NSCLC; 9.04 µM in the test with RPMI-8226 leukemia; 27.8 µM in the test with CAKI-1 renal; 28.2 µM in the test with M14 melanoma; 34.9 µM in the test on SK-MEL-2 melanoma. The TGI with HCC-2998 colon was 55.5 µM; in the test with T-47D breast, 16.3 µM; with MDA-MB-231 breast, 31 µM; in the test with SNB-19 CNS, over 56.2 µM.
In the case of `OCCc1ccsc1-c1sc(-c2cc(CCO)c(-c3sc(-c4cc(CCO)c(-c5sccc5CCO)s4)cc3CCO)s2)cc1CCO`, the total growth inhibition concentration (TGI) amounted to 3.39 µM in the test with MDA-MB-435; 2.91 µM with EKVX NSCLC; 2.32 µM with RPMI-8226 leukemia; 2.95 µM with CAKI-1 renal; 3.36 µM with M14 melanoma; 3.35 µM in the test on SK-MEL-2 melanoma. For the same compound, the concentration for total growth inhibition (TGI) was found to be 2.95 µM with HCC-2998 colon, 3.56 µM with T-47D breast, 11.9 µM with MDA-MB-231 breast and 3.01 µM in the test with SNB-19 CNS.
With `CC(=O)OC1CCn2c1nc1cc([N+](=O)[O-])c(C)cc12` (stereo not drawn), the concentration for total growth inhibition (TGI) with MDA-MB-435, in the test on EKVX NSCLC, with RPMI-8226 leukemia, in the test with CAKI-1 renal, with M14 melanoma and in the test on SK-MEL-2 melanoma was over 100 µM throughout. In addition, the TGI in the test with HCC-2998 colon, with T-47D breast, in the test with MDA-MB-231 breast and in the test with SNB-19 CNS was over 100 µM each time.
Consider `CNC(=O)[C@H](Cc1ccccc1)NC(=O)N(CCC#N)CCN(C(=O)N[C@@H](Cc1ccccc1)C(=O)OC)c1ccccc1`, for which the TGI in the test with MDA-MB-435, with EKVX NSCLC, with RPMI-8226 leukemia, in the test with CAKI-1 renal, with M14 melanoma and in the test on SK-MEL-2 melanoma was over 100 µM throughout. In addition, the TGI in the test with T-47D breast, in the test with MDA-MB-231 breast and with SNB-19 CNS was over 100 µM in each case.
With `CC(=O)OCC1OC(OCCCOP(=O)(OCCC#N)OCC2OC(n3cnc4c(N)ncnc43)C(OC(=O)c3ccccc3)C2OC(=O)c2ccccc2)C(OC(C)=O)C(OC(C)=O)C1OC(C)=O` (stereo not drawn), the TGI in the test on MDA-MB-435, in the test on EKVX NSCLC, in the test with RPMI-8226 leukemia, in the test with CAKI-1 renal, in the test on M14 melanoma and in the test on SK-MEL-2 melanoma was over 100 µM in each case. The total growth inhibition concentration (TGI) in the test on HCC-2998 colon, with T-47D breast, in the test on MDA-MB-231 breast and in the test with SNB-19 CNS was over 100 µM in each case.
Consider `Nc1nc(Sc2ccc([N+](=O)[O-])c3nonc23)c2[nH]cnc2n1`, for which the TGI with MDA-MB-435 came to 12 µM; in the test on EKVX NSCLC, 19 µM; in the test on RPMI-8226 leukemia it was 5.62 µM; in the test on CAKI-1 renal, 5.74 µM; in the test on M14 melanoma, 8.72 µM; in the test on SK-MEL-2 melanoma, 6.32 µM. In addition, the TGI with HCC-2998 colon is 7.93 µM; in the test on T-47D breast, 4.43 µM; in the test with MDA-MB-231 breast it was 13.7 µM; in the test with SNB-19 CNS, 31.4 µM.
Consider `S=c1ncc(-c2cncc(-c3cnc(=S)[nH]c3)n2)c[nH]1`, for which the TGI with MDA-MB-435, in the test on EKVX NSCLC, with RPMI-8226 leukemia, with CAKI-1 renal, in the test on M14 melanoma and in the test with SK-MEL-2 melanoma was over 100 µM throughout. The TGI in the test with HCC-2998 colon, in the test with T-47D breast, in the test with MDA-MB-231 breast and in the test with SNB-19 CNS was over 100 µM in each case.
On to `COC(=O)c1ccccc1CC1Cc2c(C)ccc(C)c2C1=O` (stereo not drawn), for which the TGI with MDA-MB-435 was 59.7 µM; in the test on EKVX NSCLC, over 100 µM; in the test with CAKI-1 renal, over 100 µM; with M14 melanoma, over 100 µM; with SK-MEL-2 melanoma, 38.4 µM; in the test with HCC-2998 colon it was over 100 µM. Besides, the TGI is 87.2 µM in the test on T-47D breast, over 100 µM with MDA-MB-231 breast and over 100 µM in the test with SNB-19 CNS.
Turning to `CN(C)C(=O)C(F)(F)C(c1ccccc1)C1C(=O)N(C)C(=O)N(C)C1=O` (stereo not drawn), the concentration for total growth inhibition (TGI) with MDA-MB-435, in the test on EKVX NSCLC, with RPMI-8226 leukemia, in the test with CAKI-1 renal, with M14 melanoma and with SK-MEL-2 melanoma was over 100 µM each time. In addition, the TGI in the test on HCC-2998 colon, with T-47D breast, in the test on MDA-MB-231 breast and with SNB-19 CNS was over 100 µM in each case.
Regarding `CC(C)c1cc(=O)[nH]c2cc(N)ccc12`, the total growth inhibition concentration (TGI) in the test with MDA-MB-435, with EKVX NSCLC, in the test on RPMI-8226 leukemia, with CAKI-1 renal, with M14 melanoma and in the test with SK-MEL-2 melanoma was over 100 µM throughout. Further, the TGI in the test with HCC-2998 colon, with T-47D breast, with MDA-MB-231 breast and in the test with SNB-19 CNS was over 100 µM throughout.
With `O/N=C\c1c2c(cc3c1CCC3)CCC2`, the TGI with MDA-MB-435, with EKVX NSCLC, in the test on RPMI-8226 leukemia, with CAKI-1 renal, in the test on M14 melanoma and with SK-MEL-2 melanoma was over 100 µM in each case. The total growth inhibition concentration (TGI) with HCC-2998 colon, in the test with T-47D breast, with MDA-MB-231 breast and in the test with SNB-19 CNS was over 100 µM in each case.
Consider `CN(C)S(=O)(=O)c1ccc2[nH]c(O)c(C3=Nc4ccccc4C3=O)c2c1`, for which the total growth inhibition concentration (TGI) with MDA-MB-435 was over 100 µM; with EKVX NSCLC, over 100 µM; with RPMI-8226 leukemia, over 100 µM; with CAKI-1 renal, over 100 µM; with M14 melanoma, over 100 µM; in the test with SK-MEL-2 melanoma, 44.7 µM. The TGI in the test with HCC-2998 colon was over 100 µM; in the test with T-47D breast, over 100 µM; with MDA-MB-231 breast it was 52.3 µM; in the test with SNB-19 CNS, 42.6 µM.
On to `O=C1c2cc3c(cc2NC(c2ccccc2F)C1O)OCO3` (stereo not drawn), for which the TGI with MDA-MB-435 was 13.6 µM; in the test with EKVX NSCLC, over 70.8 µM; with RPMI-8226 leukemia, over 100 µM; in the test with CAKI-1 renal, over 77.8 µM; in the test with M14 melanoma it was over 100 µM; in the test with SK-MEL-2 melanoma it was over 100 µM. In addition, the concentration for total growth inhibition (TGI) in the test on HCC-2998 colon is over 75.1 µM; in the test on T-47D breast it was over 100 µM; in the test with MDA-MB-231 breast it was over 76.2 µM; with SNB-19 CNS it was over 56.1 µM.

The values above are taken from PubChem BioAssay (NCI).
